The values that follow are results of earlier work, collected in US12551426B2, “Method for treating hair, comprising the application of a first agent (a) having a silane and a chromophoric compound, and a second agent (b) having a film-forming polymer” (Henkel AG & Co. KGaA, priority 2018, dated 2026).

For this series the following is noted: 25° C.

As to `O=S(=O)([O-])c1ccc(N=Nc2c(O)ccc3ccccc23)cc1.[Na+]` [Acid Orange 7, sodium salt of 4-[(2-hydroxy-1-naphthyl)azo]benzene sulphonate], the solubility in water result is “more than 7 g/L”.
Take `Nc1cc(S(=O)(=O)[O-])cc2cc(S(=O)(=O)[O-])c(N=Nc3ccccc3)c(O)c12.[Na+].[Na+]` [Acid Red 33, diantrium salt of 5-amino-4-hydroxy-3-(phenylazo)-naphthalene-2,7-disulphonate]: the solubility in water was 2.5 mg/mL.
Take `O=C([O-])c1c(Cl)c(Cl)c(Cl)c(Cl)c1-c1c2c(Br)cc(=O)c(Br)c-2oc2c(Br)c(O)cc(Br)c12.O=C([O-])c1c(Cl)c(Cl)c(Cl)c(Cl)c1-c1c2c(Br)cc(=O)c(Br)c-2oc2c(Br)c(O)cc(Br)c12.[Na+].[Na+]` [Acid Red 92, disodium salt of 3,4,5,6-tetrachloro-2-(1,4,5,8-tetrabromo-6-hydroxy-3-oxoxanthen-9-yl)benzoic acid]: the solubility in water result is listed as “greater than 10 g/L”.
As to `O=C([O-])C1=NN(c2ccc(S(=O)(=O)[O-])cc2)C(=O)C1N=Nc1ccc(S(=O)(=O)[O-])cc1.[Na+].[Na+].[Na+]` (centres unmarked) [Acid Yellow 23, trisodium salt of 4,5-dihydro-5-oxo-1-(4-sulfophenyl)-4-((4-sulfophenyl)azo)-1H-pyrazole-3-carboxylic acid], the “solubility in water (in words)” value is listed as “highly soluble in water”.
For the molecule Acid Yellow 3, the solubility in water is 20 mg/mL.
